{"source": "patent US4380639A", "about": "“Substituted 1,2,5-thiadiazole derivatives” (Bristol-Myers Company, priority 1981, dated 1983)", "origin": "cited, not measured here", "key": {"[1]": {"conditions": "in vivo"}, "peptic ulcer disease": {"tested_on": "peptic ulcer disease", "conditions": "clinical evaluation, Gray et al., Lancet 1977"}}, "data": [{"smiles": "CNC(=S)NCCCCc1cnc[nH]1", "note": "[Burimamide]", "values": [{"measurement": "oral absorption", "setting": "[1]", "value": "oral absorption is poor"}]}, {"smiles": "CNC(=NC#N)NCCSCc1[nH]cnc1C", "note": "[Cimetidine]", "values": [{"measurement": "H2 -antagonist potency/effectiveness relative to comparator", "setting": "H2 -receptor", "value": "as effective an H2 -antagonist as metiamide"}, {"measurement": "therapeutic effectiveness in peptic ulcer disease", "setting": "peptic ulcer disease", "value": "effective therapeutic agent in the treatment of peptic ulcer disease"}]}, {"smiles": "CNC(=S)NCCSCc1[nH]cnc1C", "note": "[Metiamide]", "values": [{"measurement": "H2 -antagonist potency/effectiveness relative to comparator", "setting": "H2 -receptor", "value": "more potent than burimamide"}]}]}
